Test results reported in US6605595B1, “Avermectin derivatives” (The Kitasato Institute, priority 1999, dated 2003).

Columns and labels:
Type in all cases: in vivo
Artemia salina = assay: Insecticidal model activity against Artemia salina (brine shrimp), 96 well microplate (MIC); conditions: 20° C., observed after 24 and 48 hours
From the text: (§1) As model insects for simple determination of antiparasitic and insecticidal activities, those insects are desired which can be easily obtained and bred in laboratories, and have no pathogenicity to a human. Caenorhabditis elegans, an unparasitic eelworm widely used in experiments of genetics, was used as a typical steam worm, and Artemia salina used as feed for tropical fish and named Brine shrimp, was used instead of insects.
To a buffer for Artemia salina (obtained by dissolving 0.24% of Tris, 2.57% of sodium chloride, 0.47% of magnesium chloride, 0.07% of potassium chloride, 0.02% of sodium carbonate, 0.64% of magnesium sulfate and 0.11% of calcium chloride in distilled water and adjusting the pH to 7.1 with hydrochloric acid), dried eggs of Artemia salina [Tetra Brine Shrimp Eggs, Warner Lambert Co.] were added. The noprius larvae 1 or 2 days after hatching were used for the experiments.
(§2) Each well of a 96 well microplate was filled with the solution of the test compound (methanol as a solvent), and the solvent was removed using a vacuum pump, then 250 μl of the assay medium was added to each wells (the assay medium was prepared by dissolving 7.5 mM sodium hydrogencarbonate, 7.5 mM potassium chloride, 7.5 mM calcium chloride dihydrate and 7.5 mM magnesium sulfate heptahydrate in distilled water and adding 0.01% of lecithin thereto), and then the microplate was shaken using a microplate mixer for 15 minutes. To each well, a few individuals of Caenorhabditis elegans were added by softly rubbing the surface of the agar using a toothpick, or a few individuals of Artemia salina were added together with 50 μl of the buffer. The microplate was incubated at 20° C., and then the insects were observed after 24 and 48 hours under a microscope (magnification of 40×). The results were compared to those obtained without addition of the test compound, and evaluated by 4 grades.
(§3) The evaluation results were shown by indications of 4 grades from 0 to 3.
(§4) 1: A little week movements
(§5) Of the 4 grades, Indications 3 and 2 were judged as effective, and Indications 1 and 0 as ineffective. In Table 9, the values for each compound are minimum inhibitory concentrations (MIC) which were required to give Indication 2 (or 3) for Caenorhabditis elegans or Artemia salina. In Table 9, Caenorhabditis elegans and Artemia salina are abbreviated as C.E. and A.S., respectively.

Caenorhabditis elegans = assay: Antiparasitic activity against Caenorhabditis elegans, 96 well microplate (MIC); conditions: 20° C., observed after 24 and 48 hours
From the text: as §1
Escherichia. coli for the feed of Caenorhabditis elegans (mutant having uracil requirement) was inoculated in a seed medium for E. coli to which a small amount of uracil was added, and cultured with shaking at 27° C. for 1 day. A petri dish of 6 cm diameter was filled with 10 ml of an agar medium for eelworm proliferation, and the medium was solidified. Then 0.5 ml of the culture of E. coli was spread over the medium in the dish, and the dish was incubated at 37° C. to proliferate E. coli. A piece of the agar was collected with a platinum loop from a petri dish in which Caenorhabditis elegans successfully proliferated, and inoculated in petri dishes in which E. coli was proliferated. The petri dishes were incubated at 20° C. to proliferate Caenorhabditis elegans. Since the life of eelworm is about 2 weeks, subculture was carried out every once a week. The eelworms grown with spread on the surface of the petri dish after 3 to 5 days from subculture were used for the experiments.
The agar medium for eelworm proliferation was prepared by mixing the solutions in the following proportion: Solution A: 100 ml, Solution B: 0.1 ml, Solution C: 0.05 ml, Solution D: 0.1 ml and Solution E: 2.5 ml (without pH adjustment), and dispensing each 10 ml portion into petri dishes of 60×15 mm.
In distilled water, 2.0% of bact-trypton (DIFCO Co.), 0.55% of sodium chloride and 0.001% of uracil (SIGMA Co., pH 7.4) were dissolved, and the solution was sterilized in an autoclave at 121° C. for 20 minutes.
as §2, §3, §4, §5

[1] = system: Adult Ctenocephalides felis; assay: Test on cat fleas / oral absorption; conditions: after 24 hours
Protocol: Test on cat fleas/oral absorption
Test animals: Adult Ctenocephalides felis
Solvent: Dimethylsulfoxide (DMSO)
20 μl of this formulation are added to 4 ml of citrated cow's blood and stirred.
20 starved adult fleas (of “Georgi” species of Ctenocephalides felis) are introduced into a chamber (of a diameter of 5 cm) which is sealed with gauze at the top and bottom. A metal cylinder, whose base is sealed with parafilm, is placed on the chamber. […] Whereas the blood is heated to 37° C. a temperature of 25° C. is adjusted in the region of the flea chambers. Controls are mixed with the same volume of DMSO without the addition of any of the compounds. The test are repeated three times.
After 24 hours the mortality is determined in %.

[2] = 100 ppm in citrated cow's blood

SMILES | A.S. minimum inhibitory concentration (MIC) required to give Indication 2 (or 3) (Artemia salina) | C.E. minimum inhibitory concentration (MIC) required to give Indication 2 (or 3) (Caenorhabditis elegans) [µg/mL] | mortality of fleas ([1]; 10 ppm in citrated cow's blood) [%] | mortality of fleas [1, 2] [%]
CCC(C)C1OC2(C=CC1C)CC1CC(CC=C(C)C(OC3CC(OC)C(OC4CC(OC)C(=CC=NO)C(C)O4)C(C)O3)C(C)C=CC=C3COC4C(O)C(C)=CC(C(=O)O1)C34O)O2 (single isomer, unassigned) [Compound 9] | 0.002 µg/mL | 0.01 |  | 
CCC(C)C1OC2(C=CC1C)CC1CC(CC=C(C)C(OC3CC(OC)C(OC4CC(OC)C(=CC=NO)C(C)O4)C(C)O3)C(C)C=CC=C3COC4C(O)C(C)=CC(C(=O)O1)C34O)O2 (single isomer, unassigned) [Compound 10] | 0.002 µg/mL | 0.01 |  | 
CCC(C)C1OC2(C=CC1C)CC1CC(CC=C(C)C(OC3CC(OC)C(OC4CC(OC)C(=CC=NOC)C(C)O4)C(C)O3)C(C)C=CC=C3COC4C(O)C(C)=CC(C(=O)O1)C34O)O2 (single isomer, unassigned) [Compound 12] | 0.01 µg/mL | 0.01 |  | 
CCC(C)C1OC2(C=CC1C)CC1CC(CC=C(C)C(OC3CC(OC)C(OC4CC(OC)C(=CC=NOC)C(C)O4)C(C)O3)C(C)C=CC=C3COC4C(O)C(C)=CC(C(=O)O1)C34O)O2 (single isomer, unassigned) [Compound 13] | 0.002 µg/mL | 0.01 |  | 
CCOC(=O)C=C1C(C)OC(OC2C(C)OC(OC3C(C)=CCC4CC(CC5(C=CC(C)C(C(C)CC)O5)O4)OC(=O)C4C=C(C)C(O[Si](C)(C)C(C)(C)C)C5OCC(=CC=CC3C)C45O)CC2OC)CC1OC (stereo not drawn) [Compound 1] | 100 µg/mL | 100 |  | 
CCC(C)C1OC2(C=CC1C)CC1CC(CC=C(C)C(OC3CC(OC)C(OC4CC(OC)C(=CCO)C(C)O4)C(C)O3)C(C)C=CC=C3COC4C(O[Si](C)(C)C(C)(C)C)C(C)=CC(C(=O)O1)C34O)O2 (stereo not drawn) [Compound 3] | 20 µg/mL | 100 |  | 
CCC(C)C1OC2(C=CC1C)CC1CC(CC=C(C)C(OC3CC(OC)C(OC4CC(OC)C(=CCO)C(C)O4)C(C)O3)C(C)C=CC=C3COC4C(O)C(C)=CC(C(=O)O1)C34O)O2 (stereo not drawn) [Compound 4] | 0.01 µg/mL | 0.01 | 42 | 100
CCC(C)C1OC2(C=CC1C)CC1CC(CC=C(C)C(OC3CC(OC)C(OC4CC(OC)C(=CC=O)C(C)O4)C(C)O3)C(C)C=CC=C3COC4C(O[Si](C)(C)C(C)(C)C)C(C)=CC(C(=O)O1)C34O)O2 (stereo not drawn) [Compound 5] | 100 µg/mL | 100 |  | 
CCC(C)C1OC2(C=CC1C)CC1CC(CC=C(C)C(OC3CC(OC)C(OC4CC(OC)C(=CC(=O)OC)C(C)O4)C(C)O3)C(C)C=CC=C3COC4C(O[Si](C)(C)C(C)(C)C)C(C)=CC(C(=O)O1)C34O)O2 (stereo not drawn) [Compound 6] | ≧100 μg/ml | >100 |  | 
CCC(C)C1OC2(C=CC1C)CC1CC(CC=C(C)C(OC3CC(OC)C(OC4CC(OC)C(=CC=O)C(C)O4)C(C)O3)C(C)C=CC=C3COC4C(O)C(C)=CC(C(=O)O1)C34O)O2 (stereo not drawn) [Compound 8] | 0.01 µg/mL | 0.01 |  | 
CCC(C)C1OC2(C=CC1C)CC1CC(CC=C(C)C(OC3CC(OC)C(OC4CC(OC)C(=CCNC)C(C)O4)C(C)O3)C(C)C=CC=C3COC4C(O)C(C)=CC(C(=O)O1)C34O)O2 (stereo not drawn) [Compound 11] | 0.01 µg/mL | 0.05 |  | 
CCC(C)C1OC2(C=CC1C)CC1CC(CC=C(C)C(OC3CC(OC)C(OC4CC(OC)C(=CCN)C(C)O4)C(C)O3)C(C)C=CC=C3COC4C(O[Si](C)(C)C(C)(C)C)C(C)=CC(C(=O)O1)C34O)O2 (stereo not drawn) [Compound 14] | 5 µg/mL | 100 |  | 
CCC(C)C1OC2(C=CC1C)CC1CC(CC=C(C)C(OC3CC(OC)C(OC4CC(OC)C(=CCOC(=O)c5ccncc5)C(C)O4)C(C)O3)C(C)C=CC=C3COC4C(O[Si](C)(C)C(C)(C)C)C(C)=CC(C(=O)O1)C34O)O2 (stereo not drawn) [Compound 17] | 100 µg/mL | 100 |  | 
C=CCOC(=O)C=C1C(C)OC(OC2C(C)OC(OC3C(C)=CCC4CC(CC5(C=CC(C)C(C(C)CC)O5)O4)OC(=O)C4C=C(C)C(O)C5OCC(=CC=CC3C)C45O)CC2OC)CC1OC (stereo not drawn) [Compound 20] | 0.002 µg/mL | 0.01 |  | 
CCC(C)C1OC2(C=CC1C)CC1CC(CC=C(C)C(OC3CC(OC)C(OC4CC(OC)C(=CC=NNC(N)=O)C(C)O4)C(C)O3)C(C)C=CC=C3COC4C(O)C(C)=CC(C(=O)O1)C34O)O2 (stereo not drawn) [Compound 22] | 0.0005 µg/mL | 0.01 |  | 
CCC(C)C1OC2(C=CC1C)CC1CC(CC=C(C)C(OC3CC(OC)C(OC4CC(OC)C(=CC(=O)O)C(C)O4)C(C)O3)C(C)C=CC=C3COC4C(O)C(C)=CC(C(=O)O1)C34O)O2 (stereo not drawn) [Compound 25] | 0.01 µg/mL | 0.05 | 69 | 100
CCC(C)C1OC2(C=CC1C)CC1CC(CC=C(C)C(OC3CC(OC)C(OC4CC(OC)C(=CCOC(=O)C5CCCN5C(=O)OC(C)(C)C)C(C)O4)C(C)O3)C(C)C=CC=C3COC4C(O)C(C)=CC(C(=O)O1)C34O)O2 (stereo not drawn) [Compound 30] | 0.01 µg/mL | 0.05 |  | 
CCC(C)C1OC2(C=CC1C)CC1CC(CC=C(C)C(OC3CC(OC)C(OC4CC(OC)C(=CCOC(=O)c5ccc(Cl)nc5)C(C)O4)C(C)O3)C(C)C=CC=C3COC4C(O)C(C)=CC(C(=O)O1)C34O)O2 (stereo not drawn) [Compound 34] | 0.002 µg/mL | 0.002 |  | 
CCC(C)C1OC2(CC(=O)C1C)CC1CC(CC=C(C)C(OC3CC(OC)C(OC4CC(OC)C(=CC(=O)OC)C(C)O4)C(C)O3)C(C)C=CC=C3COC4C(O)C(C)=CC(C(=O)O1)C34O)O2 (stereo not drawn) [Compound 41] | 0.01 µg/mL | 0.01 |  | 
